One data set addresses T1, human GLP-1R (Homo sapiens, UniProt P43220).
T1 construct: HEK-293T cells overexpressing full-length human GLP-1R; FLAG (N); host or cells: HEK-293T
The experiment in a line: Human GLP1R agonist activity, intracellular cAMP accumulation. The conditions noted are these: HEK-293T cells overexpressing human GLP-1R, 1 hr. Type of data set: cell-based. The method in brief: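 cAMP accumulation is measured by HTRF after a 1 hr, room-temperature, dark exposure of thawed cells (4×10^5 cells/mL in Krebs Ringer buffer) to compound. Activity is scaled between DMSO alone as 0% and 1 nm GLP-1 as 100%.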

The subject of the next data set is C57BL/6J mice. Put plainly: Oral glucose tolerance test (OGTT). Type of data set: in vivo. Particulars: 3 nmol/kg s.c., 24 hours before glucose loading. In outline:
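Peptide or vehicle given s.c. at 0.1, 0.3, 3 or 10 nmol/kg (peptide-dependent), 24 h before oral 50% dextrose at 5 ml/kg unless stated otherwise. Blood glucose read at 0, 15, 30 and 60 min. % inhibition = (1−(AUC cpd−AUC naïve)/(AUC veh−AUC naïve))×100.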

Another data set can be described thus: physchem. In outline: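 Solubility at pH 7.4 determined by stepwise addition of 200 mM phosphate buffer in 100 μL increments to 3 mg peptide, mixing briefly each time, until no insoluble material remained, then measured by liquid chromatography.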
The mark [1] stands for this setting: read-out: Human GLP1R cAMP EC50, HEK293T.
Where [2] appears, read: Human GLP1R cAMP EC50, HEK293T (nM).
Where [3] appears, read: pH 7.4, aqueous buffer, pH 7.4 Phosphate Buffer - Solubility, 200 mM Phosphate buffer pH 7.4.
[4] abbreviates: pH 7.4, solubility in phosphate buffer at pH 7.4, 200 mM phosphate buffer pH 7.4.

Where two headings read alike, the source gives them in different places. Positions of bridges follow the written chain, without caps; N, C: chain ends. Non-standard residues stand in square brackets, D forms with d. Chains are numbered I, II in the order given. *: point of attachment. C18 diacid = O=C(O)CCCCCCCCCCCCCCCCC(=O)*; NMeY = CN[C@@H](Cc1ccc(O)cc1)C(=O)O; Aib = CC(C)(N)C(=O)O

T1 sequence (P43220 24-463): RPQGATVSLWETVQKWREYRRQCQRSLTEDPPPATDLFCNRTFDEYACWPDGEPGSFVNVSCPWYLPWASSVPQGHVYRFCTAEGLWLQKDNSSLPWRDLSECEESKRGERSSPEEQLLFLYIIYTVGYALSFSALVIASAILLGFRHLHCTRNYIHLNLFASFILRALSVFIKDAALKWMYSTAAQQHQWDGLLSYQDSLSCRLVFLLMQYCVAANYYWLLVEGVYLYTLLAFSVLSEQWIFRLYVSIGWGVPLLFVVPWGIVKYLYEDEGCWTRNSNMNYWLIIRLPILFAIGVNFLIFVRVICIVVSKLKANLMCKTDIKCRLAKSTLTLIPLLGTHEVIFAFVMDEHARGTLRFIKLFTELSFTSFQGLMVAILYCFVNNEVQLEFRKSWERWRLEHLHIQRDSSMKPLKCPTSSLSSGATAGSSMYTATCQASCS

`CC[C@H](C)[C@H](NC(=O)[C@H](Cc1ccccc1)NC(=O)[C@@H](NC(=O)CNC(=O)[C@H](CCC(=O)O)NC(=O)C(C)(C)NC(=O)[C@H](Cc1ccc(O)cc1)NC)[C@@H](C)O)C(=O)N[C@@H](CO)C(=O)N[C@@H](CC(=O)O)C(=O)N[C@@H](Cc1ccc(O)cc1)C(=O)N[C@@H](CO)C(=O)N[C@H](C(=O)NC(C)(C)C(=O)N[C@@H](CC(C)C)C(=O)N[C@@H](CC(=O)O)C(=O)N[C@@H](CCCNC(=N)N)C(=O)N[C@@H](CCCCNC(=O)CNC(=O)CNC(=O)CNC(=O)CNC(=O)CNC(=O)CCCCCCCCCCCCCCCCC(=O)O)C(=O)N[C@@H](C)C(=O)N[C@@H](CCC(N)=O)C(=O)NC(C)(C)C(=O)N[C@@H](CC(=O)O)C(=O)N[C@@H](Cc1ccccc1)C(=O)N[C@H](C(=O)N[C@@H](CC(N)=O)C(=O)N[C@@H](Cc1c[nH]c2ccccc12)C(=O)N[C@@H](CC(C)C)C(=O)N[C@@H](CC(C)C)C(=O)N[C@@H](C)C(=O)N[C@@H](CCC(N)=O)C(=O)N[C@@H](CO)C(=O)N1CCC[C@H]1C(=O)NCC(=O)O)C(C)C)[C@@H](C)CC` [Compound 88]: at human GLP-1R (setting [1]), the half-maximal effective concentration (EC50) stood at 13.5 nM. Moreover, in the data set on C57BL/6J mice, the “Oral Glucose Tolerance Test Percent decrease in blood glucose AUC (%) over 60 mins” value was 64% (3 nmol/kg). Further, the solubility was at least 15 mg/mL in the data set “physchem” (pH 7.4) and at least 30 mg/mL in the data set “physchem” (pH 7.4, aqueous buffer).

As to `CC[C@H](C)[C@H](NC(=O)[C@H](CO)NC(=O)[C@H](Cc1ccc(O)cc1)NC(=O)[C@H](CC(=O)O)NC(=O)[C@H](CO)NC(=O)[C@@H](NC(=O)[C@H](Cc1ccccc1)NC(=O)[C@@H](NC(=O)CNC(=O)[C@H](CCC(=O)O)NC(=O)C(C)(C)NC(=O)[C@@H](N)Cc1ccc(O)cc1)[C@@H](C)O)[C@@H](C)CC)C(=O)N[C@@H](C)C(=O)N[C@@H](CCCCNC(=O)CNC(=O)CNC(=O)CNC(=O)CNC(=O)CNC(=O)CCCCCCCCCCCCCCCCC(=O)O)C(=O)N[C@@H](CC(=O)O)C(=O)N[C@@H](CCCNC(=N)N)C(=O)NC(C)(C)C(=O)N[C@@H](C)C(=O)N[C@@H](CCC(N)=O)C(=O)N[C@@H](C)C(=O)N[C@@H](CC(=O)O)C(=O)N[C@@H](Cc1ccccc1)C(=O)N[C@H](C(=O)N[C@@H](CCC(=O)O)C(=O)N[C@@H](Cc1c[nH]c2ccccc12)C(=O)N[C@@H](CC(C)C)C(=O)N[C@@H](CC(C)C)C(=O)N[C@@H](C)C(=O)N[C@@H](CCC(N)=O)C(=O)N[C@@H](CCCNC(=N)N)C(=O)NCC(=O)O)C(C)C` [Compound 149], the 50% effective concentration (EC50) at human GLP-1R (setting [1]) stood at 15.8 nM. For the same compound, in the data set on C57BL/6J mice, the “Oral Glucose Tolerance Test Percent decrease in blood glucose AUC (%) over 60 mins” value was 13% (3 nmol/kg). The solubility was at least 15 mg/mL in “physchem” (pH 7.4) and at least 30 mg/mL in the data set “physchem” (pH 7.4, aqueous buffer).

As for `CC[C@H](C)[C@H](NC(=O)[C@H](Cc1ccccc1)NC(=O)[C@@H](NC(=O)CNC(=O)[C@H](CCC(=O)O)NC(=O)C(C)(C)NC(=O)[C@H](Cc1ccc(O)cc1)NC)[C@@H](C)O)C(=O)N[C@@H](CO)C(=O)N[C@@H](CC(=O)O)C(=O)N[C@@H](Cc1ccc(O)cc1)C(=O)N[C@@H](CO)C(=O)N[C@H](C(=O)NC(C)(C)C(=O)N[C@@H](CCCCNC(=O)CNC(=O)CNC(=O)CNC(=O)CNC(=O)CNC(=O)CCCCCCCCCCCCCCCCC(=O)O)C(=O)N[C@@H](CC(=O)O)C(=O)N[C@@H](CCCNC(=N)N)C(=O)NC(C)(C)C(=O)N[C@@H](C)C(=O)N[C@@H](CCC(N)=O)C(=O)NC(C)(C)C(=O)N[C@@H](CC(=O)O)C(=O)N[C@@H](Cc1ccccc1)C(=O)N[C@H](C(=O)N[C@@H](CC(N)=O)C(=O)N[C@@H](Cc1c[nH]c2ccccc12)C(=O)N[C@@H](CC(C)C)C(=O)N[C@@H](CC(C)C)C(=O)N[C@@H](C)C(=O)N[C@@H](CCC(N)=O)C(=O)N[C@@H](CO)C(=O)N1CCC[C@H]1C(=O)NCC(=O)O)C(C)C)[C@@H](C)CC` [Compound 83], the EC50 at human GLP-1R (setting [1]) is 66.1 nM. For the same compound, the “Oral Glucose Tolerance Test Percent decrease in blood glucose AUC (%) over 60 mins” value in the data set on C57BL/6J mice is listed as 68% (3 nmol/kg). Also, the solubility was at least 15 mg/mL in “physchem” (pH 7.4) and at least 30 mg/mL in the data set “physchem” (pH 7.4, aqueous buffer).

With “I: H-[NMeY][Aib]EGTFISDYSIAKDR[Aib]AQ[Aib]DFVNWLLAQSPSSGAPPPS-OH / II: {C18 diacid}-PAPAPGG (amide I:14-II:C) [Compound 105]”, the concentration for a half-maximal effect (EC50) at human GLP-1R (setting [2]) came to 562 nM. Also, in the data set with C57BL/6J mice, the “Oral Glucose Tolerance Test Percent decrease in blood glucose AUC (%) over 60 mins” value is 82% (3 nmol/kg). For the same compound, the figures for the solubility in the data set “physchem” (setting [3]) and in “physchem” (setting [4]) were at least 60 mg/mL and at least 15 mg/mL, respectively.

As to `CC[C@H](C)[C@H](NC(=O)[C@H](CO)NC(=O)[C@H](Cc1ccc(O)cc1)NC(=O)[C@H](CC(=O)O)NC(=O)[C@H](CO)NC(=O)[C@@H](NC(=O)[C@H](Cc1ccccc1)NC(=O)[C@@H](NC(=O)CNC(=O)[C@H](CCC(=O)O)NC(=O)C(C)(C)NC(=O)[C@H](Cc1ccc(O)cc1)NC)[C@@H](C)O)[C@@H](C)CC)C(=O)N[C@@H](C)C(=O)N[C@@H](CCCCNC(=O)CNC(=O)CNC(=O)CNC(=O)CNC(=O)CNC(=O)CCCCCCCCCCCCCCCCC(=O)O)C(=O)N[C@@H](CC(=O)O)C(=O)N[C@@H](CCCNC(=N)N)C(=O)NC(C)(C)C(=O)N[C@@H](C)C(=O)N[C@@H](CCC(N)=O)C(=O)NC(C)(C)C(=O)N[C@@H](CC(=O)O)C(=O)N[C@@H](Cc1ccccc1)C(=O)N[C@H](C(=O)N[C@@H](CC(N)=O)C(=O)N[C@@H](Cc1c[nH]c2ccccc12)C(=O)N[C@@H](CC(C)C)C(=O)N[C@@H](CC(C)C)C(=O)N[C@@H](C)C(=O)N[C@@H](CCC(N)=O)C(=O)N[C@@H](CCC(N)=O)C(=O)NCC(=O)O)C(C)C` [Compound 82], on human GLP-1R (setting [1]), the EC50 stood at 17.4 nM. Besides, in the data set on C57BL/6J mice, the “Oral Glucose Tolerance Test Percent decrease in blood glucose AUC (%) over 60 mins” value is 72% (3 nmol/kg). Further, the solubility was at least 15 mg/mL in the data set “physchem” (pH 7.4) and at least 30 mg/mL in the data set “physchem” (pH 7.4, aqueous buffer).

`CC[C@H](C)[C@H](NC(=O)[C@H](CO)NC(=O)[C@H](Cc1ccc(O)cc1)NC(=O)[C@H](CC(=O)O)NC(=O)[C@H](CO)NC(=O)[C@@H](NC(=O)[C@H](Cc1ccccc1)NC(=O)[C@@H](NC(=O)CNC(=O)[C@H](CCC(=O)O)NC(=O)C(C)(C)NC(=O)[C@H](Cc1ccc(O)cc1)NC)[C@@H](C)O)[C@@H](C)CC)C(=O)N[C@@H](C)C(=O)N[C@@H](CC(C)C)C(=O)N[C@@H](CC(=O)O)C(=O)N[C@@H](CCCNC(=N)N)C(=O)N[C@@H](CCCCNC(=O)CNC(=O)CNC(=O)CNC(=O)CNC(=O)CNC(=O)CCCCCCCCCCCCCCCCC(=O)O)C(=O)N[C@@H](C)C(=O)N[C@@H](CCC(N)=O)C(=O)NC(C)(C)C(=O)N[C@@H](CC(=O)O)C(=O)N[C@@H](Cc1ccccc1)C(=O)N[C@H](C(=O)N[C@@H](CCC(=O)O)C(=O)N[C@@H](Cc1c[nH]c2ccccc12)C(=O)N[C@@H](CC(C)C)C(=O)N[C@@H](CC(C)C)C(=O)N[C@@H](C)C(=O)N[C@@H](CCC(N)=O)C(=O)N[C@@H](CCCNC(=N)N)C(=O)NCC(=O)O)C(C)C` [Compound 115]: the EC50 on human GLP-1R (setting [1]) was 40.7 nM. Also, the “Oral Glucose Tolerance Test Percent decrease in blood glucose AUC (%) over 60 mins” value in the data set with C57BL/6J mice is reported as 40% (3 nmol/kg). Also, the solubility in “physchem” (pH 7.4) is at least 15 mg/mL; in the data set “physchem” (pH 7.4, aqueous buffer), at least 30 mg/mL.

`CC[C@H](C)[C@H](NC(=O)[C@H](CO)NC(=O)[C@H](Cc1ccc(O)cc1)NC(=O)[C@H](CC(=O)O)NC(=O)[C@H](CO)NC(=O)[C@@H](NC(=O)[C@H](Cc1ccccc1)NC(=O)[C@@H](NC(=O)CNC(=O)[C@H](CCC(=O)O)NC(=O)C(C)(C)NC(=O)[C@H](Cc1ccc(O)cc1)NC)[C@@H](C)O)[C@@H](C)CC)C(=O)N[C@@H](C)C(=O)N[C@@H](CC(C)C)C(=O)N[C@@H](CC(=O)O)C(=O)N[C@@H](CCCNC(=N)N)C(=O)N[C@@H](CCCCNC(=O)CNC(=O)CNC(=O)CNC(=O)CNC(=O)CNC(=O)CCCCCCCCCCCCCCCCC(=O)O)C(=O)N[C@@H](C)C(=O)N[C@@H](CCC(N)=O)C(=O)NC(C)(C)C(=O)N[C@@H](CC(=O)O)C(=O)N[C@@H](Cc1ccccc1)C(=O)N[C@H](C(=O)N[C@@H](CC(N)=O)C(=O)N[C@@H](Cc1c[nH]c2ccccc12)C(=O)N[C@@H](CC(C)C)C(=O)N[C@@H](CC(C)C)C(=O)N[C@@H](C)C(=O)N[C@@H](CCC(N)=O)C(=O)N[C@@H](CO)C(=O)N1CCC[C@H]1C(=O)N[C@@H](CO)C(=O)N[C@@H](CO)C(=O)NCC(=O)N[C@@H](C)C(=O)N1CCC[C@H]1C(=O)N1CCC[C@H]1C(=O)N1CCC[C@H]1C(=O)N[C@@H](CO)C(=O)O)C(C)C` [Compound 52] showed an EC50 at human GLP-1R (setting [2]) of 17 nM. The “Oral Glucose Tolerance Test Percent decrease in blood glucose AUC (%) over 60 mins” value with C57BL/6J mice is recorded as 65% (3 nmol/kg). For the same compound, the solubility is at least 30 mg/mL in “physchem” (setting [3]) and at least 15 mg/mL in “physchem” (setting [4]).
